These are literature values, as cited in patent US20210316038A1, “ANTIBIOTIC ELUTING POLY(ESTER UREA) FILMS, MESHES AND POUCHES FOR INFECTION CONTROL OF IMPLANTABLE MEDICAL DEVICES” (The University of Akron, priority 2019, published 2021).

`Cc1nnc(SCC2=C(C(=O)O)N3C(=O)[C@@H](NC(=O)Cn4cnnn4)[C@H]3SC2)s1` [Cefazolin]: the solubility in water entry is listed as “Cefazolin has high solubility in water (>100 mg/ml”.
